Laboratory results from BindingDB's records for doi:10.1016/j.bmc.2013.10.054 (Punjabi University, 2014).
pIC50: −log10 of the molar value.

Target: T1, P2X purinoceptor 7 (Homo sapiens, UniProt Q99572)
T1 sequence (Q99572 whole entry): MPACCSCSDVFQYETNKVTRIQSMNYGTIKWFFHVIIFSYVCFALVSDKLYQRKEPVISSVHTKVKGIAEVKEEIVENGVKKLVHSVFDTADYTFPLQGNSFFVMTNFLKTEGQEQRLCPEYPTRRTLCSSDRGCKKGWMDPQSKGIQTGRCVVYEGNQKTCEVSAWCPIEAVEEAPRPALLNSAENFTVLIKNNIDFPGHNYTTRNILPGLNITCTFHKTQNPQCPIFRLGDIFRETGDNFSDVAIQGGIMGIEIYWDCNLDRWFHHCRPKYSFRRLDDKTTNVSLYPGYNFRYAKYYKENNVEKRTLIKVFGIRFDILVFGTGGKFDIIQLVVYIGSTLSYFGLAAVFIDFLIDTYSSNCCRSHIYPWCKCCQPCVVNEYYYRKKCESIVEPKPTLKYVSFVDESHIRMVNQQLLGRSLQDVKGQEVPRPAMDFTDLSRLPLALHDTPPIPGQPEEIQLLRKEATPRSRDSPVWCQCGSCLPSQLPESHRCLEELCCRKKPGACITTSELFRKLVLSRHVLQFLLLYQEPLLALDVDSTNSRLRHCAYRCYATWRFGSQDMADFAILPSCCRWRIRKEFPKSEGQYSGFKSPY
Assay: Antagonist activity at P2X7 receptor (unknown origin)

`O=C(Cn1cc(O)n(-c2ccccc2)c1=O)NCc1ccc(F)cc1Cl` was tested. Which pIC50 did it give?
Its pIC50 is > 6.00.
